Experimental data as given in ChEMBL document CHEMBL4813949, “Hypothemycin-Type Resorcylic Acid Lactones with Immunosuppressive Activities from a Podospora sp” (J Nat Prod, 2021).

Columns and labels:
[1] = test system: Splenocyte; assay: Immunosuppressive activity in BALB/c mouse splenocytes assessed as inhibition of concanavalin A-stimulated T-cell proliferation incubated for 48 hrs by MTT assay; format: functional, cell-based
[2] = test system: Splenocyte; assay: Immunosuppressive activity in BALB/c mouse splenocytes assessed as inhibition of LPS-stimulated B-cell proliferation incubated for 48 hrs by MTT assay; format: functional, cell-based
[3] = test system: Splenocyte; assay: Cytotoxicity against BALB/c mouse splenocytes at 50 uM incubated for 48 hrs by MTT assay; format: cell-based
[4] = test system: T-cell; assay: Induction of apoptosis in ConA-induced mouse splenic T cells assessed as early apoptotic cells at 5 uM after 48 hrs by Annexin V-FITC/propidium iodide staining based flow cytometry analysis (reference value: 6.9 %); format: functional
[5] = test system: T-cell; assay: Induction of apoptosis in ConA-induced mouse splenic T cells assessed as late apoptotic cells at 5 uM after 48 hrs by Annexin V-FITC/propidium iodide staining based flow cytometry analysis (reference value: 0.4 %); format: functional
[6] = test system: T-cell; assay: Induction of apoptosis in ConA-induced mouse splenic T cells assessed as early apoptotic cells at 10 uM after 48 hrs by Annexin V-FITC/propidium iodide staining based flow cytometry analysis (reference value: 6.9 %); format: functional
[7] = test system: T-cell; assay: Induction of apoptosis in ConA-induced mouse splenic T cells assessed as late apoptotic cells at 10 uM after 48 hrs by Annexin V-FITC/propidium iodide staining based flow cytometry analysis (reference value: 0.4 %); format: functional
[8] = test system: T-cell; assay: Induction of apoptosis in ConA-induced mouse splenic T cells assessed as early apoptotic cells at 20 uM after 48 hrs by Annexin V-FITC/propidium iodide staining based flow cytometry analysis (reference value: 6.9 %); format: functional
[9] = test system: T-cell; assay: Induction of apoptosis in ConA-induced mouse splenic T cells assessed as late apoptotic cells at 20 uM after 48 hrs by Annexin V-FITC/propidium iodide staining based flow cytometry analysis (reference value: 0.4 %); format: functional
[10] = test system: T-cell; assay: Induction of apoptosis in ConA-induced mouse splenic T cells assessed as increase in Bax protein expression after 48 hrs by Western blotting analysis; format: functional, cell-based; settings: dose 5-20 µM
[11] = test system: T-cell; assay: Induction of apoptosis in ConA-induced mouse splenic T cells assessed as increase in cytochrome C protein expression after 48 hrs by Western blotting analysis; format: functional, cell-based; settings: dose 5-20 µM
[12] = test system: T-cell; assay: Induction of apoptosis in ConA-induced mouse splenic T cells assessed as increase in cleaved caspase 3 protein expression after 48 hrs by Western blotting analysis; format: functional, cell-based; settings: dose 5-20 µM
[13] = test system: T-cell; assay: Induction of apoptosis in ConA-induced mouse splenic T cells assessed as increase in cleaved caspase 9 protein expression after 48 hrs by Western blotting analysis; format: functional, cell-based; settings: dose 5-20 µM
[14] = test system: T-cell; assay: Induction of apoptosis in ConA-induced mouse splenic T cells assessed as decrease in Bcl-2 protein expression after 48 hrs by Western blotting analysis; format: functional, cell-based; settings: dose 5-20 µM
[15] = test system: T-cell; assay: Induction of apoptosis in ConA-induced mouse splenic T cells assessed as decrease in Mcl-1 protein expression after 48 hrs by Western blotting analysis; format: functional, cell-based; settings: dose 5-20 µM
[16] = test system: T-cell; assay: Induction of apoptosis in ConA-induced mouse splenic T cells assessed as decrease in Bcl-xL protein expression after 48 hrs by Western blotting analysis; format: functional, cell-based; settings: dose 5-20 µM
[17] = test system: T-cell; assay: Induction of apoptosis in ConA-induced mouse splenic T cells assessed as downregulation of JNK phosphorylation after 48 hrs by Western blotting analysis; format: functional, cell-based; settings: dose 5-20 µM
[18] = test system: T-cell; assay: Induction of apoptosis in ConA-induced mouse splenic T cells assessed as early apoptotic cells at 1 uM after 48 hrs by Annexin V-FITC/propidium iodide staining based flow cytometry analysis (reference value: 7.1 %); format: functional
[19] = test system: T-cell; assay: Induction of apoptosis in ConA-induced mouse splenic T cells assessed as late apoptotic cells at 1 uM after 48 hrs by Annexin V-FITC/propidium iodide staining based flow cytometry analysis (reference value: 0.6 %); format: functional
[20] = test system: T-cell; assay: Induction of apoptosis in ConA-induced mouse splenic T cells assessed as early apoptotic cells at 5 uM after 48 hrs by Annexin V-FITC/propidium iodide staining based flow cytometry analysis (reference value: 7.1 %); format: functional
[21] = test system: T-cell; assay: Induction of apoptosis in ConA-induced mouse splenic T cells assessed as late apoptotic cells at 5 uM after 48 hrs by Annexin V-FITC/propidium iodide staining based flow cytometry analysis (reference value: 0.6 %); format: functional
[22] = test system: T-cell; assay: Induction of apoptosis in ConA-induced mouse splenic T cells assessed as early apoptotic cells at 15 uM after 48 hrs by Annexin V-FITC/propidium iodide staining based flow cytometry analysis (reference value: 7.1 %); format: functional
[23] = test system: T-cell; assay: Induction of apoptosis in ConA-induced mouse splenic T cells assessed as late apoptotic cells at 15 uM after 48 hrs by Annexin V-FITC/propidium iodide staining based flow cytometry analysis (reference value: 0.6 %); format: functional

Compound	IC50 [1]	IC50 [2]	Activity [3]	other results
C[C@H](O)C/C=C/[C@@H]1CCCC(=O)Cc2cc(O)cc(O)c2C(=O)O1	10.6 µM	10.3 µM	Non-Toxic	Activity [4]: 12.1%; Activity [5]: 26.2%; Activity [6]: 11%; Activity [7]: 37.2%; Activity [8]: 8.9%; Activity [9]: 55.8%; Activity [10]: Dose-Dependent Effect; Activity [11]: Dose-Dependent Effect; Activity [12]: Dose-Dependent Effect; Activity [13]: Dose-Dependent Effect; Activity [14]: Dose-Dependent Effect; Activity [15]: Dose-Dependent Effect; Activity [16]: Dose-Dependent Effect; Activity [17]: Dose-Dependent Effect
COc1c(C)c2c(c(O)c1C/C=C(\C)CCC(=O)OCCN1CCOCC1)C(=O)OC2 [MYCOPHENOLATE MOFETIL]		0.5 µM		
COc1cc(O)c2c(c1)/C=C/C[C@@H](O)[C@H](O)C(=O)/C=C/C[C@H](C)OC2=O	11.4 µM	6.8 µM	Non-Toxic	
COc1cc(O)c2c(c1)/C=C/C[C@H](O)C(=O)CCCC[C@H](C)OC2=O	> 50 µM	> 50 µM	Non-Toxic	
COc1cc(O)c2c(c1)/C=C/CC[C@H](O)[C@H](O)CCC[C@H](C)OC2=O	> 50 µM	> 50 µM	Non-Toxic	
COc1cc(O)c2c(c1)/C=C/CCC(=O)[C@@H](O)CCC[C@H](C)OC2=O	> 50 µM	> 50 µM	Non-Toxic	
C[C@H]1C/C=C/[C@@H](O)[C@@H](O)CC/C=C/c2cc(O)cc(O)c2C(=O)O1 [AIGIALOMYCIN D]	16.3 µM	18.4 µM	Non-Toxic	
COc1cc(O)c2c(c1)/C=C/C[C@H](O)[C@H](O)C(=O)/C=C/C[C@H](C)OC2=O	6 µM	6.2 µM	Non-Toxic	
C[C@H](O)CCC[C@@H]1CCCC(=O)Cc2cc(O)cc(O)c2C(=O)O1	> 50 µM	> 50 µM	Non-Toxic	
COc1cc(O)c2c(c1)/C=C/C[C@H](O)[C@@H](O)[C@@H](O)CCC[C@H](C)OC2=O	> 50 µM	> 50 µM	Non-Toxic	
COc1cc(O)c2c(c1)/C=C/CCC(=O)[C@H](O)CCC[C@H](C)OC2=O	25.1 µM	27.7 µM	Non-Toxic	
COc1cc(O)c2c(c1)/C=C/C[C@H](O)[C@H](O)C(=O)C[C@H](O)C[C@H](C)OC2=O	18.8 µM	21.9 µM	Non-Toxic	
COc1cc(O)c2c(c1)/C=C/C[C@H](O)[C@H](O)C(=O)CCC[C@H](C)OC2=O	7.4 µM	6.4 µM	Non-Toxic	Activity [18]: 9.1%; Activity [19]: 26.5%; Activity [20]: 5.8%; Activity [21]: 32.9%; Activity [22]: 4.6%; Activity [23]: 59.1%
COc1cc(O)c2c(c1)[C@H]1O[C@@H]1C[C@H](O)[C@H](O)C(=O)CCC[C@H](C)OC2=O	8.1 µM	8.5 µM	Non-Toxic	
COc1cc(O)c2c(c1)/C=C/C[C@@H](O)[C@@H](O)C(=O)CCC[C@H](C)OC2=O	16.5 µM	14.6 µM	Non-Toxic	
COc1cc(O)c2c(c1)/C=C/C[C@H](O)[C@@H](O)C(=O)/C=C/C[C@H](C)OC2=O	24.1 µM	29.1 µM	Non-Toxic	
COc1cc(O)c2c(c1)/C=C/C[C@@H](O)[C@@H](O)C(=O)/C=C/C[C@H](C)OC2=O	15.2 µM	11.8 µM	Non-Toxic	
C[C@H](O)C[C@@H]1CCCCCc2cc(O)cc(O)c2C(=O)O1	> 50 µM	> 50 µM	Non-Toxic	
COc1cc(O)c2c(c1)/C=C/CC[C@H](O)C(=O)CCC[C@H](C)OC2=O	> 50 µM	> 50 µM	Non-Toxic	
COc1cc(O)c2c(c1)/C=C/C[C@H](O)[C@@H](O)C(=O)CCC[C@H](C)OC2=O	> 50 µM	> 50 µM	Non-Toxic	
